Results reported in ChEMBL document CHEMBL1201862, “PubChem BioAssay data set” (2004).
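Each compound was tested at five concentrations against cells in 96-well plates for 48 hours. Here, GI50 denotes the concentration required for 50% inhibition of growth.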 Activity calls are given as the source filed them. No stated cut-off is given here; in the data, active = GI50 up to about 1.1 µM and inactive = higher.

Assays:
Assay in all cases: DTP human tumour cell line panel, 48 h
ACHN = tested on: ACHN
A498 = tested on: A498
OVCAR-5 = tested on: OVCAR-5
M19-MEL = tested on: M19-MEL
DLD-1 = tested on: DLD-1
SK-MEL-28 = tested on: SK-MEL-28
M14 = tested on: M14
CCRF-CEM = tested on: CCRF-CEM
SNB-78 = tested on: SNB-78
UACC-62 = tested on: UACC-62
RPMI-8226 = tested on: RPMI-8226
HT-29 = tested on: HT-29
HCC 2998 = tested on: HCC 2998
OVCAR-3 = tested on: OVCAR-3
OVCAR-8 = tested on: OVCAR-8
SF-539 = tested on: SF-539
DMS-273 = tested on: DMS-273
SK-MEL-2 = tested on: SK-MEL-2
CAKI-1 = tested on: CAKI-1
KM-20L2 = tested on: KM-20L2
NCI-H460 = tested on: NCI-H460
RXF 393 = tested on: RXF 393
K562 = tested on: K562
Malme-3M = tested on: Malme-3M
SN12C = tested on: SN12C
NCI-H522 = tested on: NCI-H522
MOLT-4 = tested on: MOLT-4
SW-620 = tested on: SW-620
A549 = tested on: A549
LOX IMVI = tested on: LOX IMVI
SNB-19 = tested on: SNB-19
COLO 205 = tested on: COLO 205
HL-60 = tested on: HL-60
HOP-62 = tested on: HOP-62
SF-268 = tested on: SF-268
NCI-H23 = tested on: NCI-H23
UO-31 = tested on: UO-31
HCT-116 = tested on: HCT-116
HOP-92 = tested on: HOP-92
DMS-114 = tested on: DMS-114
LXFL 529 = tested on: LXFL 529
IGROV-1 = tested on: IGROV-1
HCT-15 = tested on: HCT-15
NCI-H226 = tested on: NCI-H226
SK-OV-3 = tested on: SK-OV-3
SK-MEL-5 = tested on: SK-MEL-5
U-251 = tested on: U-251
SF-295 = tested on: SF-295
SR = tested on: SR
OVCAR-4 = tested on: OVCAR-4
SNB-75 = tested on: SNB-75
786-0 = tested on: 786-0
UACC-257 = tested on: UACC-257
EKVX = tested on: EKVX
HOP-18 = tested on: HOP-18
TK-10 = tested on: TK-10
KM12 = tested on: KM12

`CC(=O)N(N=O)c1ccc(N(N=O)C(C)=O)cc1` was tested, and the GI50 (ACHN) was > 100 µM (inactive), the GI50 (A498) was > 100 µM (inactive) and the GI50 (OVCAR-5) was > 100 µM (inactive). The GI50 (M19-MEL) was > 100 µM (inactive), the GI50 (DLD-1) was > 100 µM (inactive) and the GI50 (SK-MEL-28) was > 100 µM (inactive). The GI50 (M14) was > 100 µM (inactive), the GI50 (CCRF-CEM) was > 100 µM (inactive) and the GI50 (SNB-78) was > 100 µM (inactive). For the same compound, the GI50 (UACC-62) was > 100 µM (inactive), the GI50 (RPMI-8226) was > 100 µM (inactive) and the GI50 (HT-29) was > 100 µM (inactive). The GI50 (HCC 2998) was > 100 µM (inactive), the GI50 (OVCAR-3) was > 100 µM (inactive) and the GI50 (OVCAR-8) was > 100 µM (inactive). For the same compound, the GI50 (SF-539) was > 100 µM (inactive), the GI50 (DMS-273) was > 100 µM (inactive) and the GI50 (SK-MEL-2) was > 100 µM (inactive). For the same compound, the GI50 (CAKI-1) was > 100 µM (inactive), the GI50 (KM-20L2) was > 100 µM (inactive) and the GI50 (NCI-H460) was > 100 µM (inactive). The GI50 (RXF 393) was > 100 µM (inactive), the GI50 (K562) was > 100 µM (inactive) and the GI50 (Malme-3M) was > 100 µM (inactive). For the same compound, the GI50 (SN12C) was > 100 µM (inactive), the GI50 (NCI-H522) was > 100 µM (inactive) and the GI50 (MOLT-4) was > 100 µM (inactive). The GI50 (SW-620) was > 100 µM (inactive), the GI50 (A549) was > 100 µM (inactive) and the GI50 (LOX IMVI) was > 100 µM (inactive). The GI50 (SNB-19) was > 100 µM (inactive), the GI50 (COLO 205) was > 100 µM (inactive) and the GI50 (HL-60) was > 100 µM (inactive). The GI50 (HOP-62) was > 100 µM (inactive), the GI50 (SF-268) was > 100 µM (inactive) and the GI50 (NCI-H23) was > 100 µM (inactive). The GI50 (UO-31) was > 100 µM (inactive), the GI50 (HCT-116) was > 100 µM (inactive) and the GI50 (HOP-92) was > 100 µM (inactive). The GI50 (DMS-114) was > 100 µM (inactive), the GI50 (LXFL 529) was > 100 µM (inactive) and the GI50 (IGROV-1) was > 100 µM (inactive). For the same compound, the GI50 (HCT-15) was greater than 100 µM, the GI50 (NCI-H226) was > 100 µM (inactive) and the GI50 (SK-OV-3) was > 100 µM (inactive). For the same compound, the GI50 (SK-MEL-5) was > 100 µM (inactive), the GI50 (U-251) was > 100 µM (inactive) and the GI50 (SF-295) was > 100 µM (inactive). The GI50 (SR) was > 100 µM (inactive), the GI50 (OVCAR-4) was > 100 µM (inactive) and the GI50 (SNB-75) was > 100 µM (inactive). The GI50 (786-0) was > 100 µM (inactive).

`O=C1CCCc2c(O)ccc(O)c21` was tested, and the GI50 (ACHN) was > 100 µM (inactive), the GI50 (A498) was > 100 µM (inactive) and the GI50 (OVCAR-5) was > 100 µM (inactive). For the same compound, the GI50 (M19-MEL) was 93.5 µM (inactive), the GI50 (DLD-1) was > 100 µM (inactive) and the GI50 (SK-MEL-28) was > 100 µM (inactive). The GI50 (M14) was > 100 µM (inactive), the GI50 (CCRF-CEM) was 19.1 µM (inactive) and the GI50 (SNB-78) was > 100 µM (inactive). The GI50 (UACC-62) was > 100 µM (inactive), the GI50 (RPMI-8226) was 40.6 µM (inactive) and the GI50 (HT-29) was > 100 µM (inactive). For the same compound, the GI50 (UACC-257) was > 100 µM (inactive), the GI50 (HCC 2998) was > 100 µM (inactive) and the GI50 (OVCAR-3) was > 100 µM (inactive). The GI50 (OVCAR-8) was > 100 µM (inactive), the GI50 (SF-539) was > 100 µM (inactive) and the GI50 (DMS-273) was > 100 µM (inactive). The GI50 (SK-MEL-2) was > 100 µM (inactive), the GI50 (KM-20L2) was > 100 µM (inactive) and the GI50 (NCI-H460) was > 100 µM (inactive). For the same compound, the GI50 (EKVX) was 85.7 µM (inactive), the GI50 (RXF 393) was > 100 µM (inactive) and the GI50 (HOP-18) was > 100 µM (inactive). The GI50 (K562) was 35.9 µM (inactive), the GI50 (Malme-3M) was > 100 µM (inactive) and the GI50 (SN12C) was > 100 µM (inactive). The GI50 (NCI-H522) was 12.6 µM (inactive), the GI50 (MOLT-4) was 27.9 µM (inactive) and the GI50 (TK-10) was > 100 µM (inactive). The GI50 (SW-620) was 61.2 µM (inactive), the GI50 (A549) was > 100 µM (inactive) and the GI50 (LOX IMVI) was > 100 µM (inactive). For the same compound, the GI50 (SNB-19) was > 100 µM (inactive), the GI50 (COLO 205) was > 100 µM (inactive) and the GI50 (HL-60) was 22.8 µM (inactive). The GI50 (HOP-62) was > 100 µM (inactive), the GI50 (SF-268) was 48.5 µM (inactive) and the GI50 (NCI-H23) was > 100 µM (inactive). For the same compound, the GI50 (UO-31) was > 100 µM (inactive), the GI50 (HCT-116) was > 100 µM (inactive) and the GI50 (DMS-114) was 19.9 µM (inactive). The GI50 (KM12) was > 100 µM (inactive), the GI50 (LXFL 529) was 44 µM (inactive) and the GI50 (IGROV-1) was > 100 µM (inactive). The GI50 (HCT-15) was greater than 100 µM, the GI50 (NCI-H226) was > 100 µM (inactive) and the GI50 (SK-OV-3) was > 100 µM (inactive). The GI50 (SK-MEL-5) was > 100 µM (inactive), the GI50 (U-251) was > 100 µM (inactive) and the GI50 (SF-295) was > 100 µM (inactive). The GI50 (SR) was 28.3 µM (inactive), the GI50 (OVCAR-4) was > 100 µM (inactive) and the GI50 (SNB-75) was 38.5 µM (inactive). The GI50 (786-0) was > 100 µM (inactive).
